Measured values published in patent publication US10300048B2, “Thiazolidinones as cellular anandamide uptake inhibitors and their use in the treatment of psychiatric or neurological disorders and inflammation, in particular neuroinflammation” (UNIVERSITAT BERN, priority 2014, dated 2019).
Where two headings read alike, the source gives them in different places.

Key:
[1] = system: TNF-alpha and IL-1beta in brain; assay: Endotoxemia mouse model (LPS), brain cytokines; assay type: in vivo, mice; conditions: 5 mg/kg i.p. 30 min prior to LPS 250 μg/100 g i.p., vs. vehicle, P<0.05
Experimental: Male BALB/c mice were injected i.p. with test compounds (5 mg/kg) or vehicle (DMSO, 20 μL) 30 min prior to LPS administration (250 μg/100 g body weight) in 50 μL saline solution. The administrations were conducted between 9:00 and 10:00 am. 30 min prior to scarification, 20 units (200 μL) of Inhepar® were injected subcutaneously. […] The brain was immediately removed on ice and stored in liquid nitrogen. […] The concentrations of the cytokines in brain and plasma were measured using commercially available Luminex MagPix cytokines assay (BioRad) specific for mice, according to the manufacturer's instructions. The acquisition of the fluorescent signal was achieved by a charged-coupled device (CCD) imager. The concentration of the analytes was determined by MAGPIX xPONENT. The assays were run in triplicates and the concentrations were expressed in pg/mL based on a standard curve.
(§1) Statistical analysis and IC50 values were determined using GraphPad® Prism 5.0 (GraphPad® Software, San Diego, Calif., US). Inhibition curves were obtained by non-linear regression using the built-in log(inhibitor) vs. response-variable slope (four parameters) function. Results were calculated as % of vehicle control of the corresponding fraction (cells, aqueous phase) if not mentioned else. In vivo results are shown in absolute values and were analyzed by a one-way ANOVA following a Tukey's multiple comparison test or student's t-test. If not indicated else the results were compared vs. vehicle (CTRL). *** P<0.001, ** P<0.01, * P<0.05, ns=not significant P>0.05.

FAAH = FAAH (Homo sapiens (Human), UniProt O00519); assay: FAAH activity: hydrolysis of [3H]-AEA in U937 cell homogenates; assay type: biochemical; conditions: U937 cell homogenate, read-out: FAAH inhibition IC50
Chain of FAAH (O00519 whole entry): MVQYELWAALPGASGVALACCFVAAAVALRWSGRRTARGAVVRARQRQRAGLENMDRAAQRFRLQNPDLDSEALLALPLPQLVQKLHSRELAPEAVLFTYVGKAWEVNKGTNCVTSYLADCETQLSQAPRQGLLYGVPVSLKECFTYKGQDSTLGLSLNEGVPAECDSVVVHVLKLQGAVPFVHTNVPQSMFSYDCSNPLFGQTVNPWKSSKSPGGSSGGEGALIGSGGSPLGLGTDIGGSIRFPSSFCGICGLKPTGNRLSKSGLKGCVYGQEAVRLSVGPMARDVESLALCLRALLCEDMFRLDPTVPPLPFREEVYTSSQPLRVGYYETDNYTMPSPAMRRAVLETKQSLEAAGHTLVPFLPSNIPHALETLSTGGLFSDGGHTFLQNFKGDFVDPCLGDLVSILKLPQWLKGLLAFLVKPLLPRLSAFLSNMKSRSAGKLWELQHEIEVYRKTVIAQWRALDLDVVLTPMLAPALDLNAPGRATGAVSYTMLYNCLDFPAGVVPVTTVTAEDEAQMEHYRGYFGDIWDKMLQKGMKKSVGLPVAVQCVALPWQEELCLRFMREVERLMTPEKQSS
Experimental: Hydrolysis of [^3H]-AEA by FAAH was determined as previously described in cell homogenates of U937 cells (0.18 mg protein) (Omeir et al., 1999, Biochem Biophys Res Commun, 264, 316-20; Mor et al., 2004, J Med Chem, 47, 4998-5008). Protein amounts of cell homogenates corresponded to 0.5×10^6 cells (U937), to assure best possible comparability of IC50 values as used for the AEA cellular uptake assays. URB597 was used as positive control. Protein quantification was performed using a BCA assay (Thermo Scientific). Enzyme activity was assessed by addition of vehicle or compounds in 10 μL DMSO to 490 μL homogenate in 10 mM Tris HCl, 1 mM EDTA, 0.1% (w/v) BSA fatty acid free, pH=8 and incubation for 15 min at 37° C. After, a mixture of AEA plus [ethanolamine-1-^3H]-AEA (0.5 nM) at final 100 nM was added to the homogenates and incubated for 15 min at 37° C. The reaction was stopped by addition of 1 mL ice-cold CHCl3:MeOH (1:1) followed by vigorous vortexing. Phase separation was achieved by centrifugation at 10′000×g at 4° C. for 10 min. Radioactivity of the separated aqueous phase (upper phase) containing [^3H-ethanolamine] or [^3H-glycerol] was measured by liquid scintillation counting on a Tri-Carb 2100 TR liquid scintillation analyzer after addition of 3.5 mL Ultima Gold scintillation cocktail (PerkinElmer Life Sciences). Results are expressed as hydrolysis of tritium substrate in percent of vehicle treated control. IC50 values were calculated by GraphPad®. Data are reported as means of n=3 independent experiments performed in triplicates.
as §1

SMILES	IL-1beta level in total brain ([1]; after 2 hours)	TNF-alpha level in total brain ([1]; after 2 hours)	IL-1beta level in total brain ([1]; after 8 hours)	TNF-alpha level in total brain ([1]; after 8 hours)	IC50 (FAAH; Table 4) [µM]	IC50 (FAAH; Table 2) [µM]
COc1ccc(/C=C2\S/C(=N\c3ccc(OC)cc3)N(c3ccc(OC)cc3)C2=O)cc1 [Compound 5]	Decrease	Decrease	Decrease	Decrease	20.4	–
COc1cc(/C=C2\S/C(=N\c3ccccc3)N(c3ccccc3)C2=O)ccc1O [Compound 6]	–	–	–	–	26.9	–
O=C1/C(=C/c2cc(Cl)c(O)c(Cl)c2)S/C(=N\c2ccccc2)N1Cc1ccco1 [Compound 23]	–	–	–	–	60.3	60.3
